Key:
[1] = tested on: LacI lactose operon repressor (SEQ ID NO 11), LacI-T7 system (Phy-spank-T7 RNAP / PT7lac, sfgfp reporter); assay: IPTG dose response of the LacI-T7 inducible promoter system (steady state transfer function, sfGFP fluorescence by flow cytometry); type: cell-based, B. subtilis PY79; conditions: Hill function fit
Excerpt: (§1) FIG. 1E sfGFP Fluorescence from LacI-T7 and Phy-spank as a function of IPTG concentration.
Next, we measured the steady state transfer function of both systems by growing the corresponding strains under different concentrations of IPTG. In both cases, sfGFP fluorescence increases as a function of IPTG concentration in a manner well-approximated by a Hill function (FIG. 1E).
For each experiment, an overnight LB culture was started from the freezer stock of each relevant strain. The next day, saturated cultures (OD600˜3) were diluted 10^5-fold in M9. […]
(§2) The sfGFP fluorescence distribution of each culture was measured using a BD FACScan flow cytometer with an excitation source of 488 nm and an emission window of 510/21 nm. […] A suspension of calibration beads (Spherotech® RCP-30-5A) in PBS was measured with each experiment. […]
(§3) Cell populations were gated by forward scatter/side scatter density (not shown) retaining 50% of the total number of events. Next, fluorescence of each gated event in arbitrary units was converted into standardized MEFL values using the calibration bead data. The total cellular fluorescence of each culture sample was then obtained by calculating the median MEFL fluorescence of all gated events in that sample. […] Numerical sfGFP fluorescence values of every sample and replicate can be found in Table 1.

[2] = tested on: LacI lactose operon repressor (SEQ ID NO 11), Phy-spank system (sfgfp reporter); assay: IPTG dose response of the Phy-spank inducible promoter system (steady state transfer function, sfGFP fluorescence by flow cytometry); type: cell-based, B. subtilis PY79; conditions: Hill function fit
Excerpt: as §1
Phy-spank is a variant of the IPTG-inducible promoter Pspac optimized for higher expression and dynamic range, and is perhaps the most widely used B. subtilis inducible promoter system. We constructed a second B. subtilis strain wherein sfgfp* was expressed under the control of Phy-spank, RiboJ, and RBS MF001 to compare its performance to that of LacI-T7.
Next, we measured the steady state transfer function of both systems by growing the corresponding strains under different concentrations of IPTG. In both cases, sfGFP fluorescence increases as a function of IPTG concentration in a manner well-approximated by a Hill function (FIG. 1E). […]
as §2
as §3, with “data.” for “data. The total cellular fluorescence of each culture sample was then obtained by calculating the median MEFL fluorescence of all gated events in that sample.”

[3] = Bacillus subtilis, IPTG detection threshold, sfGFP fluorescence, read-out: 50% activation concentration
[4] = sfGFP fluorescence as a function of IPTG concentration

CC(C)S[C@@H]1O[C@H](CO)[C@H](O)[C@H](O)[C@H]1O [IPTG, Isopropyl β-D-1-thiogalactopyranoside]
EC50 [1, 3]: 54.1 ± 1.6 µM
Hill coefficient [1, 4]: 3.377±0.051
EC50 [2, 3]: 50.2 ± 1.5 µM
Hill coefficient [2, 4]: 2.120±0.033

From US12460215B2, “Bacillus expression system” (WILLIAM MARSH RICE UNIVERSITY, priority 2018, dated 2025)
